What was measured:
TRPM2 [1] = target: T1, TRPM2 (Homo sapiens, UniProt O94759); assay: whole-cell patch clamp; type: cell-based
TRPM2 [2] = target: T1, TRPM2; assay: whole-cell patch clamp, HEK293 expressing hTRPM2; type: cell-based

T1 sequence (O94759 whole entry): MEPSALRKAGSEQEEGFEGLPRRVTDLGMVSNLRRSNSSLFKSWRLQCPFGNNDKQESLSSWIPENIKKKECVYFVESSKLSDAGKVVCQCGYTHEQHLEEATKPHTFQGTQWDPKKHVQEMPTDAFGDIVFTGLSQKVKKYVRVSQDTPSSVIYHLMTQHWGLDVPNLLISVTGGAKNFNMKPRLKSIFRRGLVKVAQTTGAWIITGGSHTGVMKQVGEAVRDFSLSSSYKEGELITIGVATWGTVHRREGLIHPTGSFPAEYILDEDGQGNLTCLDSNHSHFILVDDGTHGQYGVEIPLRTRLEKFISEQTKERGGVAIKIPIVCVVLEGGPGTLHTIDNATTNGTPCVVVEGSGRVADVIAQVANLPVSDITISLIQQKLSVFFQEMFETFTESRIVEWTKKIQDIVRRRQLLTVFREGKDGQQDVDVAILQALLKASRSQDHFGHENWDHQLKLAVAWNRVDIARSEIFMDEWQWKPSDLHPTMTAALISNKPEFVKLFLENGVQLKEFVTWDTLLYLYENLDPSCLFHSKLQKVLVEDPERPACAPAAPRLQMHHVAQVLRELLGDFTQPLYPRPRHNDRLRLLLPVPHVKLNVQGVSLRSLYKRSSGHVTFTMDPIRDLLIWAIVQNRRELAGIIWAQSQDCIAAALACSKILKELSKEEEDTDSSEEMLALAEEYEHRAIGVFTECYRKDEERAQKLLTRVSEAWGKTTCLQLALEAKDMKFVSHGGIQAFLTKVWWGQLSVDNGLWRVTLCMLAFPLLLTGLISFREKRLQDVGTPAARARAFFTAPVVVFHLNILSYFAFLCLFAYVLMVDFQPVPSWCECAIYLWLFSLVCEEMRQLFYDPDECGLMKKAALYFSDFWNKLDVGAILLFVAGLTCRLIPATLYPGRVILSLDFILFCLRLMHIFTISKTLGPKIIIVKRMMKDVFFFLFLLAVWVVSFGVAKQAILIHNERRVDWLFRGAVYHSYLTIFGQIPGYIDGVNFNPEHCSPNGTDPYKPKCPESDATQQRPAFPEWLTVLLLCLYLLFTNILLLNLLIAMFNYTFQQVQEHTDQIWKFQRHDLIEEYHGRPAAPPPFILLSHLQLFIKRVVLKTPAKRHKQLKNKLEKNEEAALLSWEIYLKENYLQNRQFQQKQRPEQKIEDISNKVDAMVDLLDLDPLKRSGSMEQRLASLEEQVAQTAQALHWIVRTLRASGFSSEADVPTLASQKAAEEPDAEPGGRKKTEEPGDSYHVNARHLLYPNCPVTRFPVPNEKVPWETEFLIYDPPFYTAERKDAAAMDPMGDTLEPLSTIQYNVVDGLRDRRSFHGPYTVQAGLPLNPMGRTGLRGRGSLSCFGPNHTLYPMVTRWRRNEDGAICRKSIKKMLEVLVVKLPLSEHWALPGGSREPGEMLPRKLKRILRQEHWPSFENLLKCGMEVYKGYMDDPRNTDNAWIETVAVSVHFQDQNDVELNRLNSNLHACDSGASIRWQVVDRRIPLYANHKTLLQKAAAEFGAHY

Work on `Nc1ncnc2c1ncn2[C@@H]1O[C@H](COP(=O)(O)OP(=O)(O)OC[C@H]2OC(O)[C@H](O)[C@@H]2O)[C@@H](O)[C@H]1O` (stereo partly drawn) [compound 1, ADPR] yielded an EC50 (TRPM2 [1]) of 28 µM.

`Nc1ncnc2c1ncn2[C@@H]1O[C@H](COP(=O)(O)OP(=O)(O)OC[C@H]2OC(O)[C@H](O)[C@@H]2O)[C@@H](O)[C@H]1OP(=O)(O)O` (stereo partly drawn) [compound 15, 2′-phospho-ADPR] was tested, and the EC50 (TRPM2 [2]) was 110 µM.

Work on `Nc1ncnc2c1ncn2[C@@H]1O[C@H](COP(=O)(O)OP(=O)(O)OC[C@H]2OC(O)[C@H](O)[C@@H]2O)C[C@H]1O` (stereo partly drawn) [compound 17, 3′-deoxy-ADPR] yielded an EC50 (TRPM2 [2]) of 46 µM.

From publication PMC5563452 (Nature chemical biology, 2017)
